Counter-ions that a name gives are not always drawn.

The term melting point denotes the temperature, or range, at which the solid turns liquid. Turning to `C[Si](C)(OC[C@H]1O[C@@H](n2ccc(N)nc2=O)[C@@H](C#N)[C@@H]1O)c1ccccc1`, the melting point was 139 to 140 °C. To `CC(C)C(C)(C)[Si](C)(C)OC[C@H]1O[C@@H](n2ccc(N)nc2=O)[C@H](C#N)[C@@H]1O` belongs 187 to 187.5 °C; to `CC(C)C(C)(C)[Si](C)(C)O[C@H]1[C@H](C#N)[C@H](n2ccc(N)nc2=O)O[C@@H]1CO.CS(=O)(=O)O`, 203 to 204 °C; to `CC(C)C[Si](CC(C)C)(CC(C)C)O[C@H]1[C@H](C#N)[C@H](n2ccc(N)nc2=O)O[C@@H]1CO`, 101 to 102 °C.

Consider `CC(C)C(C)(C)[Si](C)(C)O[C@H]1[C@@H](C#N)[C@H](n2ccc(N)nc2=O)O[C@@H]1CO`, for which the melting point was 179 to 182 °C. Next, `C[Si](C)(OC[C@H]1O[C@@H](n2ccc(N)nc2=O)[C@@H](C#N)[C@@H]1O)C1CCCCC1`: 152 to 153 °C. Consider `CC(C)(C)[Si](OC[C@H]1O[C@@H](n2ccc(N)nc2=O)[C@@H](C#N)[C@@H]1O)(c1ccccc1)c1ccccc1`, for which the melting point was 187 °C. Next, `N#C[C@H]1[C@H](O)[C@@H](CO[Si](c2ccccc2)(c2ccccc2)c2ccccc2)O[C@H]1n1ccc(N)nc1=O`: 203 °C (dec.). `N#C[C@H]1[C@H](O)[C@@H](CO[Si](Cc2ccccc2)(Cc2ccccc2)Cc2ccccc2)O[C@H]1n1ccc(N)nc1=O`: the melting point was 188 °C (dec.). Next, `CC(C)C(C)(C)[Si](C)(C)O[C@H]1[C@H](C#N)[C@H](n2ccc(N)nc2=O)O[C@@H]1CO` (as salt: hydrochloride) [Example 26, 3′-O-Dimethylthexylsilyl-2′-cyano-2′-deoxy-1-β-D-arabinofuranosylcytosine hydrochloride]: 206 °C (dec.); `CC(C)[C@H](N)C(=O)OC[C@H]1O[C@@H](n2ccc(N)nc2=O)[C@@H](C#N)[C@@H]1O[Si](C)(C)C(C)(C)C(C)C` (as salt: trifluoroacetate) [Example 31, 3′-O-Dimethylthexylsilyl-5′-O-(L-valyl)-2′-cyano-2′-deoxy-1-β-D-arabinofuranosylcytosine bis(trifluoroacetate)]: 118 to 120 °C; `CC(C)[C@H](N)C(=O)OC[C@H]1O[C@@H](n2ccc(N)nc2=O)[C@@H](C#N)[C@@H]1O[Si](C)(C)C(C)(C)C` (as salt: trifluoroacetate) [Example 32, 5′-O-(L-Valyl)-3′-O-(tert-butyldimethylsilyl)-2′-cyano-2′-deoxy-1-β-D-arabinofuranosylcytosine bis(trifluoroacetate)]: 118 to 120 °C. Next, `CCCCCCCC[Si](C)(C)O[C@H]1[C@H](C#N)[C@H](n2ccc(N)nc2=O)O[C@@H]1CO` [Example 23, 3′-O-(Dimethyl-n-octylsilyl)-2′-cyano-2′-deoxy-1-β-D-arabinofuranosylcytosine]: 153 to 154 °C; `CC(C)C(C)(C)[Si](C)(C)O[C@H]1[C@H](C#N)[C@H](n2ccc(N)nc2=O)O[C@@H]1CO.O=C(O)C(F)(F)F` [Example 25, 3′-O-Dimethylthexylsilyl-2′-cyano-2′-deoxy-1-β-D-arabinofuranosylcytosine trifluoroacetate]: 151 to 154 °C.

The values are drawn from patent publication US7825103B2, “Pyrimidine nucleoside compound or its salt” (Taiho Pharmaceutical Co., Ltd., priority 2005, dated 2010).
